# Where two headings read alike, the source gives them in different places.
# What was measured:
# boar sperm [1] = details: cited from earlier work
# rodents = details: in vivo; cited from earlier work
# Rat = details: po; cited from earlier work
# [2] = test system: differentiated PK-15 cells; assay: cells; details: Sus scrofa, PK-15, read-out: Mitochondrial Toxicity 1d (EC50, acceleration of glycolysis and depolarization of mitochondria)
# Fish = details: cited from earlier work
# boar sperm [3] = assay: cells
# [4] = test system: differentiated PK-15 cells
# [5] = test system: boar sperm and PK-15 cells
# [6] = test system: PK-15 (porcine kidney epithelial cells) and/or FFL (feline fetus lung cells); assay: cells; details: Sus scrofa
# boar sperm [7] = test system: boar sperm
# [8] = test system: PK-15 (porcine kidney epithelial cells) and/or FFL (feline fetus lung cells)
# [9] = 72 h, read-out: EC50 Ex Vivo BSMI 1–3d
# [10] = PK-15, 48 h, read-out: EC50 In Vitro ICP 2d
Compound,Toxicity In Vivo LD50 Rat p.o. (Rat),EC50 [2],"In Vivo (toxicity to experimental animals), xenobiotic chemicals (Fish)",Toxicity In Vivo LD50 Fish (Fish),EC50 (boar sperm [3]; [9]),Mitochondrial toxicity after testing with somatic cells [4],Toxicity profile of pure toxins and chemicals in the BSMI and ICP assays [5],"EC50 [6, 10]","Ex Vivo BSMI 1–3d, toxic (+) / nontoxic (−), xenobiotic chemicals (boar sperm [7]; pig (boar))","In Vitro ICP 2d, toxic (+) / nontoxic (−), xenobiotic chemicals [8]","In Vivo (toxicity to experimental animals), mycotoxins and fungal metabolites (Rat)","In Vitro ICP 2d, toxic (+) / nontoxic (−), microbial metabolites [8]",other results
CC(C)C[C@H]1OC(=O)[C@H](C(C)C)NC(=O)[C@H](C(C)C)OC(=O)[C@@H](C)NC(=O)[C@@H](CC(C)C)OC(=O)[C@H](C(C)C)NC(=O)[C@H](C(C)C)OC(=O)[C@@H](C)NC(=O)[C@@H](CC(C)C)OC(=O)[C@H](C(C)C)NC(=O)[C@H](C(C)C)OC(=O)[C@@H](C)NC1=O [Cereulide],,,,,,,,,,,,,Toxicity in sperm motility tests (boar sperm [1]): toxic; Toxicity to rodents (rodents): non-toxic
"CCCCCCCCCC[N+](C)(C)CCCCCCCCCC [DDAC, Didecyl- dimethyl- ammonium- chloride]",238 mg/kg,1 µg/mL,+ (key: LD50 Fish Inhaled <10 μg mL ^–1 = Toxic in vivo Marked as +.),0.5 mg/L,1 µg/mL,Mitochondrial toxicity was recorded,highly toxic in both assays,0.5 µg/mL,"(+) 1 (key: (+): For the xenobiotic chemicals, EC50 values < 10 µg mL^−1 and <20 µg mL^−1 were considered as toxic in the BSMI assay and in the ICP assay, respectively; nontoxic as (−))","(+) 0.5 (key: (+): For the xenobiotic chemicals, EC50 values < 10 µg mL^−1 and <20 µg mL^−1 were considered as toxic in the BSMI assay and in the ICP assay, respectively; nontoxic as (−))",,,
Alamethicin,80 mg/kg,,,,,,toxic in both the BSMI and ICP tests,,,,+ (key: LD50 rat p.o. <1000 mg kg ^–1 Classified as Toxic in vivo +.),"(+) 6 (key: (+): For the microbial metabolites, EC50 < 5 µg mL^−1 and <10 µg mL^−1 were considered as toxic in the BSMI and ICP assays, respectively; nontoxic as (−))","EC50 Ex Vivo BSMI 1–3d (boar sperm [7]): (+) 0.5 μg mL^–1; Ex Vivo BSMI 1–3d, toxic (+) / nontoxic (−), microbial metabolites (boar sperm [7]): (+) 0.5 (key: (+): For the microbial metabolites, EC50 < 5 µg mL^−1 and <10 µg mL^−1 were considered as toxic in the BSMI and ICP assays, respectively; nontoxic as (−)); EC50 In Vitro ICP 2d [8]: (+) 6 μg mL^–1"
"Oc1cc(Cl)ccc1Oc1ccc(Cl)cc1Cl [Triclosan, Triclorooxy-phenylether]",3700 mg/kg,5 µg/mL,+ (key: LD50 Fish Inhaled <10 μg mL ^–1 = Toxic in vivo Marked as +.),0.5 mg/L,1 µg/mL,Mitochondrial toxicity was recorded,,20 µg/mL,"(+) 1 (key: (+): For the xenobiotic chemicals, EC50 values < 10 µg mL^−1 and <20 µg mL^−1 were considered as toxic in the BSMI assay and in the ICP assay, respectively; nontoxic as (−))",20 (−),,,"EC50 (boar sperm [3]; read-out: EC50 Ex Vivo BSMI, positive controls, mean of 10 or 11 measurements): 1 µg/mL; EC50 ([6]; PK-15, read-out: EC50 In Vitro ICP, positive controls, mean of 10 or 11 measurements): 13 µg/mL; Sperm motility relative to the negative control (boar sperm [7]): < 20%"
C[C@@H]1Cc2c(Cl)cc(C(=O)N[C@@H](Cc3ccccc3)C(=O)O)c(O)c2C(=O)O1 [Ochratoxin A],20 mg/kg,,,,> 50 µg/mL,,not detected in our assays,> 50 µg/mL,,,+ (key: LD50 rat p.o. <1000 mg kg ^–1 Classified as Toxic in vivo +.),(−) >50,"Ex Vivo BSMI 1–3d, toxic (+) / nontoxic (−), microbial metabolites (boar sperm [7]; pig (boar)): (−) >50"

# From PMC10974995 (Pathogens, 2024)
